US10420845B2, “Taggable heteroaromatic drugs and conjugates thereof” (Ramot at Tel-Aviv University Ltd., priority 2015, dated 2019)

Columns and labels:
SF-295 = assay: tumor cell-growth inhibition assay, SF-295 cells; format: cell-based; conditions: Homo sapiens; cell line SF-295
Method: (§1) In order to find out whether the new derivatives retain their potency, the cytotoxicity of the CPT-, TMZ- and bosutinib-ketone analogues was evaluated in comparison to that of the parent drugs.

[1] = system: U-87 human primary glioblastoma cell; assay: tumor cell-growth inhibition assay, U-87 cells; format: cell-based; conditions: U-87 MG
Method: as §1
To determine the usefulness of the drug analogues produced harboring a ketone for controlled release and bioconjugation. CPT-ketone 2a was selected for further evaluation. As presented in Scheme 1, a ketone functional group can be masked either through an acid-labile hydrazone linkage or with a photo-labile ketal protecting group. CPT-ketone 2a was masked with a photo-labile protecting group (Gravel et al., 1983; Klan et al., 2013) to produce ketal derivative 6 (FIG. 5). This derivative can be considered as prodrug form of CPT-ketone 2a. […] The cytotoxicity of prodrug 6 was then evaluated in a standard cell-growth inhibition assay before and after irradiation with UV light (FIG. 5B). […] In this example, the prodrug was activated with UV light; however, there are analogues protecting groups that can be removed through a visible or near infrared light (Lu et al., 2003).

HiFR KB cells = assay: proliferation (MTT) assay on KB HiFR cells; format: cell-based; conditions: human
Method: Proliferation Assay KB HiFR were seeded in 96 well/plates, 2×10^3 cell/100 μL in folate depleted RPMI+10% FBS. After 24 h incubation at 37° C., 5% CO2, 100 μL of serial dilutions (200-0.00002 μM CPT equivalent concentrations) of CPT and CPT-derivatives were added to the wells (final concentration 100-0.00001 μM). In the short exposure (pulse and chase) experiment the treatments were removed after 10 min incubation at 37° C., 5% CO2, the cells were washed once with PBS and incubated with fresh folate depleted RPMI+10% FBS for 72 h. In the long exposure experiment, the cells were incubated for 72 h with the treatment. After 72 h incubation, 30 μL of […] of MTT (3-(4,5-dimethylthiazol-2-yl)-2,5-diphenyltetrazolium bromide) in PBS were added to each well, and incubated for 5 h. After incubation the medium was removed and the cells lysed in 200 μL DMSO and kept under gentle stirring protected from light for 20 min. Absorbance was measured at 560 nm and survival plotted as percentage of untreated control.

[2] = release of CPT-ketone 2a from prodrug 6 with and without UV irradiation; format: physicochemical
tumorous cell-lines = assay: tumor cell-growth inhibition assays of ketone derivatives vs native drugs, several tumorous cell-lines; format: cell-based; conditions: repeated with several tumorous cell-lines
Method: as §1
The assays were repeated with several tumorous cell-lines and the obtained results were similar (FIGS. 3-4).

U-251 = assay: tumor cell-growth inhibition assay, U-251 cells; format: cell-based; conditions: Homo sapiens; cell line U-251
Method: as §1

In the case of `COc1cc(Nc2c(C#N)cnc3cc(OCCCN4CCN(C)CC4)c(OC)cc23)c(Cl)cc1Cl` [Bosutinib, bosutinib, reference compound], the IC50 (SF-295) is reported as 17000 nM.

`COc1cc(Nc2c(C#N)c(C(F)(F)CCCC(C)=O)nc3cc(OCCCN4CCN(C)CC4)c(OC)cc23)c(Cl)cc1Cl` [Bosutinib-ketone] showed an IC50 (SF-295) of 17000 nM.

With `CC[C@@]1(O)C(=O)OCc2c1cc1n(c2=O)Cc2cc3ccccc3nc2-1` [CPT, camptothecin, reference compound] the IC50 ([1]; cell line U-87) was 7 nM.

In the case of `CCC1(O)C(=O)OCc2c1cc1n(c2=O)Cc2c-1nc1ccccc1c2C(F)(F)CCCC(C)=O` (stereo not shown) [CPT-ketone], the “IC50 comparison, cytotoxicity on HiFR KB cells” value (HiFR KB cells) is reported as “relatively similar IC50 values”, the IC50 ([1]; cell line U-87) is reported as 10 nM and the IC50 ([1]; light or radiation study, comparator in prodrug 6 irradiation experiment) is reported as 5 nM.

For `CCC1(O)C(=O)OCc2c1cc1n(c2=O)Cc2c-1nc1ccccc1c2C(F)(F)CCCC1(C)OCC(c2cc(OC)c(OC)cc2[N+](=O)[O-])O1` (stereo not shown) [Compound 6], the IC50 ([1]; light or radiation study, prodrug after irradiation with UV light) was 10 nM, the IC50 ([1]; light or radiation study, prodrug before irradiation with UV light) was 350 nM and the “release of CPT-ketone 2a” value ([2]; irradiation with UV light over 2 hours under physiological conditions) was “resulted in release of CPT-ketone 2a”. The “release of CPT-ketone 2a” value ([2]; without irradiation) was “No release was observed”.

In the case of `CC(=O)CCCC(F)(F)c1nc2nc(N)nc(N)c2nc1CN(C)c1ccc(C(=O)NC(CCC(=O)O)C(=O)O)cc1` (stereo not shown) [MTX-ketone], the “cytotoxicity of ketone analogue compared with native drug” value (tumorous cell-lines) is reported as “completely lost its cytotoxicity”.

`Cn1nnc2c(C(N)=O)ncn2c1=O` [TMZ, temozolomide, reference compound] showed an IC50 (U-251) of 36000 nM.

In the case of `CC(=O)CCCC(F)(F)c1nc(C(N)=O)c2nnn(C)c(=O)n12` [TMZ-ketone], the IC50 (U-251) is reported as 35000 nM.
